Data: patent publication US5506359A, “Cocaine analogues and their use as cocaine drug therapies and therapeutic and imaging agents for neurodegenerative disorders” (priority 1993, dated 1996)
Read-outs that look alike come from different tables or passages of the source.

Assays:
[1] = biological target: dopamine transporter, human caudate nucleus and putamen (Homo sapiens, UniProt Q01959); experiment: [^3 H]CFT binding to homogenates of human caudate nucleus and putamen
Description: In order to determine whether [^3 H]CFT labels sites associated with the dopamine transporter, the binding of [^3 H]CFT to homogenates of human caudate nucleus and putamen, was characterized.

[2] = tested on: caudate-putamen / striatum cocaine receptors; experiment: PET imaging with [^11 C]CFT
[3] = biological target: T1, dopamine transporter ([^3 H]CFT binding sites, primate caudate-putamen) (Macaca fascicularis, UniProt Q9GJT6); experiment: Inhibition of [^3 H]CFT binding in monkey caudate-putamen membranes (Table 2); design: species or system cynomolgus monkeys (Macaca fascicularis)
T1 construct: from tissue; host or cells: caudate-putamen membranes of cynomolgus monkey brain

[4] = tested on: [^3 H]CFT binding sites in monkey caudate-putamen; details: cited from earlier work; for number of binding components: competition curves; for steepness of competition curve: displacement of [^3 H]CFT
[5] = tested on: cocaine receptors in squirrel monkey brain; experiment: Ex vivo autoradiography after intravenous administration; type: in vivo, squirrel monkeys
Description: From the in vitro autoradiographic studies, two conclusions were drawn: (a) cocaine receptors labelled by [^3 H]CFT distributed primarily to dopamine-rich brain regions and (b) the highly circumscribed distribution and low level of non-specific binding of [^3 H]CFT further supported the development of CFT as a PET imaging ligand for cocaine receptors in vivo. However, as the distribution pattern of a probe in vitro may not necessarily reflect its distribution in vivo, it was necessary to determine whether similar conclusions could be drawn using ex vivo autoradiographic techniques. The ex vivo autoradiographic distribution of [^3 H]CFT was determined following intravenous administration of [^3 H]CFT (1.0 or 2.5 nmol/kg) to squirrel monkeys (FIG. 4B). Brain sections from several A-P levels were exposed to [^3 H]-sensitive film. […] Nevertheless, the ex vivo labeling of brain regions by [^3 H] CFT corresponded closely to the in vitro autoradiographic pattern.
(§1) At the time these studies were completed, a higher affinity iodinated analog of [^3 H]CFT, [^125 I]RTI-55 (i.e., CIT, 2β-carbomethoxy-3β-(4-iodophenyl)tropane; Dupont-NEN), became available. […] This ligand was also tested by ex vivo autoradiography as an imaging probe.

[6] = tested on: serotonin transporter; details: cited from earlier work
[7] = tested on: sites in the caudate putamen; experiment: [^125 I]RTI-55 labeling of sites in caudate putamen; type: binding
Experimental: as §1

[8] = biological target: T2, cocaine recognition sites in monkey caudate-putamen (Macaca fascicularis, UniProt Q9GJT6); details: cited from earlier work
T2 construct: All studies were conducted in monkey brain caudate-putamen; from tissue; host or cells: monkey brain caudate-putamen homogenates

[9] = tested on: cocaine recognition sites in squirrel monkey brain; experiment: In vitro autoradiography in squirrel monkey brain sections; type: binding
Experimental: To identify the distribution of cocaine recognition sites in the brain, autoradiographic techniques were utilized. Such techniques were particularly appropriate for this purpose because they are 100-1,000 times more sensitive than radioreceptor assays conducted in tissue homogenates. […] Three sequential procedures: parametric studies, in vitro autoradiographic techniques, and ex vivo autoradiographic techniques were conducted in tissue sections of squirrel monkey brains.
After establishing suitable conditions for autoradiography, systematic mapping of cocaine recognition sites were conducted in squirrel monkey brain at nine anterior-posterior levels. Tissue sections were incubated alone, or in the presence of excess (-)-cocaine to determine total and nonspecific binding of [^3 H]CFT, respectively.

[10] = biological target: T2, cocaine recognition sites in monkey caudate-putamen; experiment: [^3 H]CFT and [^3 H]cocaine binding in tissue homogenates of monkey caudate-putamen
Experimental: All studies were conducted in monkey brain caudate-putamen for two reasons. […] Second, primates are consistently used to test diagnostic imaging agents and to test for cocaine-like drugs and drug therapies for Parkinson's disease.

[11] = tested on: cocaine binding sites associated with the dopamine transporter; experiment: Binding in postmortem Parkinson's diseased putamen / caudate-putamen; design: species or system human; details: tissue homogenates (FIG. 3) or tissue sections
[12] = human caudate nucleus and putamen homogenates
[13] = [^3 H]CFT 1.0 or 2.5 nmol/kg i.v.

T1 sequence (Q9GJT6 whole entry): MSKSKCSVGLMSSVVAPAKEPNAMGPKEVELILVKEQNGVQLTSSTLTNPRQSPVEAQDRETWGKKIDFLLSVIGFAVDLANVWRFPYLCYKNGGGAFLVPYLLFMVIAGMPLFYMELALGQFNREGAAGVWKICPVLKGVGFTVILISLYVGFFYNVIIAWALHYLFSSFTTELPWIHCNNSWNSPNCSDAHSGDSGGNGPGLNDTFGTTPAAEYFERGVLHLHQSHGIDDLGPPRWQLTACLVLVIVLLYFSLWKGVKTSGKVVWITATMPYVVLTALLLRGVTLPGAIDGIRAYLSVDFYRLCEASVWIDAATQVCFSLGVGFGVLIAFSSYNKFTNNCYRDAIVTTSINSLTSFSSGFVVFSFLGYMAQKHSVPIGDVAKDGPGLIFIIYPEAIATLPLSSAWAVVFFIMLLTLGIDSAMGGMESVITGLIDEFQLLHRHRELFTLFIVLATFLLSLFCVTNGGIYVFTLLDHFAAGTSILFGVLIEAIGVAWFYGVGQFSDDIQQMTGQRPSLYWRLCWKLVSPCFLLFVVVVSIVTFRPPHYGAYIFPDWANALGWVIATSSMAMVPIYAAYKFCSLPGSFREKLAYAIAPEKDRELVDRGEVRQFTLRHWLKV
T2 sequence (Q9GJT6 whole entry): as above
Sequence of dopamine transporter, human caudate nucleus and putamen (Q01959 whole entry): as the sequence (Q9GJT6 whole entry) above, with M24V, V137I, S194P, G198S, N200D, G201S, P202S counted along it

## OC1(c2ccc(Cl)cc2)c2ccccc2C2=NCCN21 (stereo not shown) [mazindol]
[1]
  rank order of potency for inhibiting [^3 H]CFT binding: Lu 19-005>CFT, mazindol, GBR 12909>(-)-cocaine>bupropion>(+)-cocaine
[2]; cynomolgus monkey, in vivo
  displacement of bound [^11 C]CFT from striatum: displaced bound [^11 C]CFT from the striatum

## CCC[CH2][Sn]([CH2]CCC)([CH2]CCC)[c]1cccc([C@H]2C[C@@H]3CC[C@H]([C@H]2C(=O)OC)N3C)c1 [4'f, 2β-Carbomethoxy-3β-(3-tributylstannylphenyl)tropane]
[3]
  IC50: 1080 ± 165 nM

## COC(=O)[C@@H]1[C@H](OC(=O)c2ccccc2)C[C@H]2CC[C@@H]1N2C [(+)-cocaine]
[1]; [12]
  rank order of potency for inhibiting [^3 H]CFT binding: Lu 19-005>CFT, mazindol, GBR 12909>(-)-cocaine>bupropion>(+)-cocaine

## COC(=O)[C@H]1[C@@H](OC(=O)c2ccccc2)C[C@@H]2CC[C@H]1N2C [(-)-cocaine]
[4]
  extent of displacement of [^3 H]CFT: full displacement of [^3 H]CFT
  number of binding components: at least two binding components
  steepness of competition curve: 0.61-0.89
[1]; [12]
  rank order of potency for inhibiting [^3 H]CFT binding: Lu 19-005>CFT, mazindol, GBR 12909>(-)-cocaine>bupropion>(+)-cocaine

## COC(=O)[C@H]1[C@@H](c2ccc(I)cc2)C[C@@H]2CC[C@H]1N2C [[^125 I]RTI-55, 2β-carbomethoxy-3β-(4-iodophenyl)tropane]
[5]; caudate-putamen
  ex vivo density: highest densities
[5]; thalamus, cortex and brain stem nuclei
  ex vivo density: moderately high densities
[6]
  additional sites labeled: associated with the serotonin transporter
[7]
  potency of labeling caudate putamen sites relative to [^3 H]CFT: approximately 10 fold

## COC(=O)[C@H]1[C@@H](c2cccc(I)c2)C[C@@H]2CC[C@H]1N2C [4'e (3-CIT), 2β-Carbomethoxy-3β-(3-iodophenyl)tropane]
[3]
  IC50: 27.8 ± 3.05 nM

## CNC1CC(c2ccc(Cl)c(Cl)c2)c2ccccc21 (stereo not shown) [Lu 19-005]
[4]
  number of binding components: a single binding component
  steepness of competition curve: 0.94-1.1

## COC(=O)[C@H]1[C@@H](c2ccc(F)cc2)C[C@@H]2CC[C@H]1N2C [[^11 C]CFT, 2β-carbomethoxy-3β-(4-fluorophenyl)tropane]
[2]; 58 min
  striatal-to-cerebellar ratio: > 4.0
[2]; MPTP-treated Parkinsonian
  CFT binding in MPTP-treated Parkinsonian monkeys: reduced
[2]; PET, 90 min imaging
  uptake in caudate-putamen: high uptake
[2]; asymptomatic
  CFT binding in asymptomatic monkeys: depletion was found

## COC(=O)[C@H]1[C@@H](c2ccc(Cl)cc2)C[C@@H]2CC[C@H]1N2C [4'b (CCT), 2β-Carbomethoxy-3β-(4-chlorophenyl)tropane]
[3]
  IC50: 1.4 ± 0.035 nM

## COC(=O)[C@H]1[C@@H](c2ccccc2)C[C@@H]2CC[C@H]1N2C [4'g (WIN 35, 065-2)]
[3]; read-out: IC50
  IC50: 65 ± 12 nM

## COC(=O)[C@H]1[C@@H](c2cccc(Br)c2)C[C@@H]2CC[C@H]1N2C [4'd (3-CBT), 2β-Carbomethoxy-3β-(3-bromophenyl)tropane]
[3]
  IC50: 7.93 ± 0.077 nM

## COC(=O)[C@H]1[C@@H](c2ccc(F)cc2)C[C@@H]2CC[C@H]1N2C [[^3 H]CFT, 2β-carbomethoxy-3β-(4-fluorophenyl)tropane]
[8]; by enantiomers of cocaine and pseudococaine and diastereoisomers of WIN 35,065-2
  stereoselective inhibition of binding: inhibited stereoselectively
[8]
  NaCl requirement for specific binding: NaCl was necessary for specific binding
  dissociation rate versus [^3 H]cocaine: considerably slower
  non-specific binding versus [^3 H]cocaine: lower than that of [^3 H]cocaine
[8]; high- and low-affinity binding components
  high-affinity component of total number of sites: approximately 10%
[8]; monkey caudate-putamen homogenates
  Bmax (density of binding sites): 388 pmol/g
[8]; read-out: K0.50, affinity, monkey caudate-putamen
  Kd: 16 nM
[9]; bed nucleus of stria terminalis, ventral tegmental area, medial preoptic area, pineal, hippocampus, thalamic central nuclei
  density of [^3 H]CFT binding: Low, though measurable, levels
[9]; caudate nucleus, putamen, nucleus accumbens, olfactory tubercle
  specific binding as % of total binding: > 90%
[9]; dopamine-rich regions: caudate nucleus, putamen, nucleus accumbens, olfactory tubercle
  density of [^3 H]CFT binding: High densities
[9]; substantia nigra, zona incerta, amygdala, hypothalamus
  density of [^3 H]CFT binding: Intermediate densities
[9]; white matter, cerebellum, globus pallidus, cortical regions
  density of [^3 H]CFT binding: Near background levels
[5]; [13]
  ex vivo binding compared with in vitro, cortex and thalamus: more prominent binding in vivo than in vitro
  ex vivo distribution of binding: caudate, putaman>nucleus accumbens/olfactory tubercla, stria terminalis>substantia nigra>hypothalamus
[10]
  affinity relative to [^3 H]cocaine: 18 times
[1]; [12]
  character of [^3 H]CFT binding: saturable, stereoselective
[11]
  [^3 H]CFT binding sites in postmortem human Parkinson's diseased caudate-putamen: severely depleted

## COC(=O)[C@H]1[C@@H](c2ccc(I)cc2)C[C@@H]2CC[C@H]1N2C [4'h (RTI-55), 2β-carbomethoxy-3β-(4-iodophenyl)tropane]
[3]
  IC50: 1.08 ± 0.06 nM

## CC(NC(C)(C)C)C(=O)c1cccc(Cl)c1 (stereo not shown) [bupropion]
[4]
  number of binding components: a single binding component
  steepness of competition curve: 0.94-1.1
[1]
  rank order of potency for inhibiting [^3 H]CFT binding: Lu 19-005>CFT, mazindol, GBR 12909>(-)-cocaine>bupropion>(+)-cocaine

## Fc1ccc(C(OCCN2CCN(CCCc3ccccc3)CC2)c2ccc(F)cc2)cc1 [GBR 12909]
[4]
  number of binding components: a single binding component
  steepness of competition curve: 0.94-1.1
[1]
  rank order of potency for inhibiting [^3 H]CFT binding: Lu 19-005>CFT, mazindol, GBR 12909>(-)-cocaine>bupropion>(+)-cocaine

## COC(=O)[C@H]1[C@@H](OC(=O)c2ccccc2)C[C@@H]2CC[C@H]1N2 [(-)-norcocaine]
[4]
  extent of displacement of [^3 H]CFT: full displacement of [^3 H]CFT
  number of binding components: at least two binding components
  steepness of competition curve: 0.61-0.89
